# Results as given in US11085033B2, “Glycosylated oxalate decarboxylase and preparation and application thereof” (WUHAN KANGFUDE BIOTECHNOLOGY CO., LTD., priority 2016, dated 2021).
# Tests used:
# [1] = target: Agrocybe aegerita glycosylated oxalate decarboxylase (OxDc), naturally expressed by acid induction; test: Determination of Km of Agrocybe aegerita oxalate decarboxylase by double reciprocal method; oxalate degradation by HPLC, 37° C.; format: biochemical
# Procedure: In this invention, high performance liquid chromatography (HPLC) is used to determine the activity of oxalate decarboxylase. The operation process is as follows: preheating 1.0 mL 5 mM (mmol/L) oxalate solution (25 mM citrate buffer solution contained, pH 3.0) at 37° C. for 10 min and adding 0.01-0.1 ml (added volume is adjusted according to enzyme concentration) solution containing oxalate decarboxylase or fungus powder suspension into the oxalate solution for reaction; adding 50 μL 2.5M (molar concentration) H2SO4 to inactivate the enzyme after reacting for 30 minutes; quickly centrifuging the reaction solution and collecting supernatant to determine the concentration of residual oxalate by using HPLC. One enzyme activity unit (U) is defined as the required enzyme amount to degrade 1 micromole oxalate per minute on this condition.
# The enzyme activity of the purified glycosylated oxalate decarboxylase obtained in Embodiment 2 was determined at pH 3.0, and the result is shown in Table 1. […] Different enzyme batches show the Kin value between 0.03 and 1.0 mM at different pH (pH 2.5-6.0), and the average Kin value at optimal pH range of pH 2.5-3.0 is 0.06 mM, as is shown in Table 2.
# [2] = test system: Bacillus subtilis oxalate decarboxylase (OxDc); conditions: even under a condition of an ideal pH value; read-out: Kin value; cited from earlier work
structure (smiles),measurement,setting,value
O=C(O)C(=O)O [oxalate],Kin value (average at optimal pH),[1]; optimal pH range pH 2.5-3.0,0.06 mM
same,Km,[1]; pH 3.0-3.5,120 ± 40 µM
same,Km,[1]; pH 3.5-4.0,200 ± 30 µM
same,Km,[1]; pH 4.0-4.5,250 ± 80 µM
same,Km,[1]; pH 4.5-5.0,360 ± 130 µM
same,Km,[1]; pH 5.0-6.0,700 ± 300 µM
same,Km,[2],4 mM
